According to the NIST ThermoML archive (doi:10.1016/j.fluid.2007.09.028):

Assay: xn = mol fraction of the nth substance listed
Settings: 101 kPa, Liquid

Clc1ccccc1 [chlorobenzene] + CCCCO
mass density [kg/m3]
Settings	288.15 K	293.15 K	298.15 K	303.15 K	308.15 K	313.15 K
x2 = 0	1111.81	1106.43	1101.04	1095.64	1090.23	1084.82
x2 = 0.0491	1098.36	1092.97	1087.57	1082.16	1076.75	1071.34
x2 = 0.1013	1084.16	1078.81	1073.45	1068.07	1062.67	–
x2 = 0.1492	1071.13	1065.83	1060.5	1055.16	1049.8	1044.42
x2 = 0.2004	1057.1	1051.85	1046.57	1041.28	1035.97	1030.63
x2 = 0.2501	1043.32	1038.12	1032.91	1027.68	1022.42	1017.14
x2 = 0.3	1029.41	1024.28	1019.13	1013.96	1008.76	1003.55
x2 = 0.3507	1015.11	1010.04	1004.96	999.858	994.721	989.562
x2 = 0.4	1001.06	996.06	991.039	985.993	980.92	975.825
x2 = 0.4502	986.537	981.622	976.686	971.72	966.72	961.715
x2 = 0.5	972.013	967.172	962.314	957.429	952.506	947.561
x2 = 0.5499	957.246	952.491	947.717	942.914	938.072	933.199
x2 = 0.5998	942.296	937.639	932.95	928.23	923.477	918.689
x2 = 0.6504	926.891	922.329	917.738	913.116	908.455	903.772
x2 = 0.7002	911.543	907.078	902.582	898.054	893.49	888.906
x2 = 0.749	896.297	891.927	887.529	883.097	878.634	874.13
x2 = 0.7995	880.209	875.948	871.658	867.339	862.977	858.585
x2 = 0.849	864.175	860.018	855.838	851.632	847.387	843.125
x2 = 0.9006	847.199	843.162	839.105	835.018	830.894	826.737
x2 = 0.9505	830.398	826.483	822.545	818.578	814.579	810.547

Clc1ccccc1 [chlorobenzene] + CCCO
mass density [kg/m3]
Settings	288.15 K	293.15 K	298.15 K	303.15 K	308.15 K	313.15 K
x2 = 0	1111.81	1106.43	1101.04	1095.64	1090.23	1084.82
x2 = 0.0254	1105.92	1100.51	1095.1	1089.69	1084.26	1078.83
x2 = 0.0513	1100.01	1094.6	1089.18	1083.75	1078.3	1072.86
x2 = 0.0726	1095.18	1089.77	1084.35	1078.91	1073.46	1068.03
x2 = 0.0738	1094.9	1089.49	1084.07	1078.63	1073.18	1067.73
x2 = 0.1016	1088.48	1083.08	1077.66	1072.22	1066.77	1061.3
x2 = 0.1058	1087.51	1082.11	1076.69	1071.26	1065.81	1060.35
x2 = 0.1365	1080.3	1074.91	1069.5	1064.08	1058.63	1053.17
x2 = 0.2019	1064.7	1059.35	1053.96	1048.56	1043.17	1037.75
x2 = 0.2472	1053.55	1048.23	1042.89	1037.53	1032.14	1026.73
x2 = 0.2984	1040.5	1035.23	1029.94	1024.62	1019.26	1013.88
x2 = 0.3443	1028.6	1023.38	1018.13	1012.85	1007.53	1002.2
x2 = 0.4027	1012.95	1007.78	1002.6	997.378	992.12	986.836
x2 = 0.4952	986.837	981.797	976.724	971.618	966.472	961.296
x2 = 0.5492	970.777	965.817	960.824	955.797	950.728	945.63
x2 = 0.5975	955.977	951.086	946.167	941.211	936.213	931.183
x2 = 0.6447	940.98	936.176	931.338	926.463	921.545	916.599
x2 = 0.699	923.003	918.296	913.559	908.798	903.973	899.127
x2 = 0.7494	905.686	901.079	896.443	891.773	887.057	882.312
x2 = 0.8008	887.239	882.746	878.223	873.664	869.063	864.438
x2 = 0.8473	869.896	865.508	861.093	856.643	852.152	847.622
x2 = 0.8955	851.18	846.915	842.621	838.296	833.934	829.53
x2 = 0.9192	841.722	837.516	833.28	829.014	824.709	820.375
x2 = 0.9497	829.134	825.009	820.857	816.677	812.457	808.213
